Results on three compounds are retold here after PubChem BioAssay AID250 (DTP/NCI, 2004).

Each structure is given as a SMILES string. Several values for one entry are separate records, joined by “and”; a condition that tells them apart may be missing. Equal values may be shown once. Inconclusive results and toxic doses are left out.

The subject of the experiment is BDF1 mice, L1210 leukemia sc, survival T/C. Kind of experiment: NCI In Vivo Anticancer Drug Screen. Data for tumor model L1210 Leukemia (subcutaneous) in B6D2F1 (BDF1) mice. As to conditions: higher = longer survival. How it is done: The antitumor activity of compounds was measured in mice bearing transplantable tumors. Survival or tumor size were measured and the results are expressed as the measurement made in the treated group (T) divided by the measurement made in the vehicle treated control group (C). The tumor model used in this assay is L1210 Leukemia (subcutaneous) in B6D2F1 (BDF1) mice

As to `Nc1nc2c(c(=O)[nH]1)N=C(CNc1ccc(C(=O)NC(CCC(=O)O)C(=O)O)cc1)CN2` (configuration not stated), the T/C by setting is: (endpoint: mean survival time, dose: 1.0 mg/kg/injection, schedule: Q01DX009 (ip), vehicle: sodium bicarbonate) 95 % of control; (endpoint: mean survival time, dose: 2.0 mg/kg/injection, schedule: Q01DX009 (ip), vehicle: sodium bicarbonate) 94 % of control; (endpoint: mean survival time, dose: 4.0 mg/kg/injection, schedule: Q01DX009 (ip), vehicle: sodium bicarbonate) 98 % of control; (endpoint: mean survival time, dose: 4.0 mg/kg/injection, schedule: Q04DX003 (ip), vehicle: sodium bicarbonate) 98 % of control; (endpoint: mean survival time, dose: 8.0 mg/kg/injection, schedule: Q01DX009 (ip), vehicle: sodium bicarbonate) 94 % of control; (endpoint: mean survival time, dose: 8.0 mg/kg/injection, schedule: Q04DX003 (ip), vehicle: sodium bicarbonate) 100 % of control. Besides, the T/C reads like this: (endpoint: mean survival time, dose: 16.0 mg/kg/injection, schedule: Q01DX009 (ip), vehicle: sodium bicarbonate) 102 % of control; (endpoint: mean survival time, dose: 16.0 mg/kg/injection, schedule: Q04DX003 (ip), vehicle: sodium bicarbonate) 96 % of control; (endpoint: mean survival time, dose: 32.0 mg/kg/injection, schedule: Q04DX003 (ip), vehicle: sodium bicarbonate) 98 % of control; (endpoint: mean survival time, dose: 64.0 mg/kg/injection, schedule: Q04DX003 (ip), vehicle: sodium bicarbonate) 96 % of control.
As for `COc1cc(NS(C)(=O)=O)ccc1Nc1c2ccccc2nc2ccccc12`, the T/C reads like this: (endpoint: mean survival time, dose: 0.75 mg/kg/injection, schedule: Q01DX009 (ip), vehicle: saline) 97 % of control; (endpoint: mean survival time, dose: 1.25 mg/kg/injection, schedule: Q01DX009 (ip), vehicle: saline) 100 % of control; (endpoint: mean survival time, dose: 1.5 mg/kg/injection, schedule: Q01DX009 (ip), vehicle: saline) 99 % of control; (endpoint: mean survival time, dose: 2.5 mg/kg/injection, schedule: Q01DX009 (ip), vehicle: saline) 104 % of control; (endpoint: mean survival time, dose: 3.0 mg/kg/injection, schedule: Q01DX009 (ip), vehicle: saline) 110 % of control; (endpoint: mean survival time, dose: 5.0 mg/kg/injection, schedule: Q01DX009 (ip), vehicle: saline) 103 % of control and 112 % of control. Also, the T/C is, setting by setting: (endpoint: mean survival time, dose: 6.0 mg/kg/injection, schedule: Q01DX009 (ip), vehicle: saline) 110 % of control; (endpoint: mean survival time, dose: 10.0 mg/kg/injection, schedule: Q01DX009 (ip), vehicle: saline) 100 % of control; (endpoint: median survival time, dose: 0.5 mg/kg/injection, schedule: Q01DX009 (ip), vehicle: other) 103 % of control; (endpoint: median survival time, dose: 1.0 mg/kg/injection, schedule: Q01DX009 (ip), vehicle: other) 102 % of control; (endpoint: median survival time, dose: 2.0 mg/kg/injection, schedule: Q01DX009 (ip), vehicle: other) 103 % of control; (endpoint: median survival time, dose: 4.0 mg/kg/injection, schedule: Q01DX009 (ip), vehicle: other) 118 % of control.
Turning to `Cc1cccc(C)c1NC(=O)N(CCCl)N=O`, the T/C (endpoint: median survival time, dose: 8.4 mg/kg/injection, schedule: Q01DX Z (sc), vehicle: carboxymethylcellulose (CMC)) is 106 % of control; the T/C (endpoint: median survival time, dose: 23.0 mg/kg/injection, schedule: Q01DX Z (sc), vehicle: carboxymethylcellulose (CMC)) was 181 % of control; the T/C (endpoint: median survival time, dose: 39.0 mg/kg/injection, schedule: Q01DX Z (sc), vehicle: carboxymethylcellulose (CMC)) was 287 % of control; the T/C (endpoint: median survival time, dose: 65.0 mg/kg/injection, schedule: Q01DX Z (sc), vehicle: carboxymethylcellulose (CMC)) is 337 % of control; the T/C (endpoint: median survival time, dose: 108.0 mg/kg/injection, schedule: Q01DX Z (sc), vehicle: carboxymethylcellulose (CMC)) is 162 % of control.
